In patent publication US8962322B2, “Enhancers of induced pluripotent stem cell reprogramming” (City of Hope, priority 2012, dated 2015):

What was measured:
luciferase = luciferase (Photinus pyralis, UniProt P08659); assay: inhibition of luciferase activity at 1 μM (applicant's observation)
Source text: OAC1 and related analogs belong to a structural class of 5-substituted pyrrolo[2,3-b]pyridine- and indole-based benzamides. Very little is reported about their biological activities. […] However, in a different assay called ATLAS (any target ligand affinity screen), no inhibition was detected (49).

p21 = assay: RT-PCR of p21 expression in treated MEFs; type: cell-based, mouse; details: MEFs treated for two days
Protocol: Inhibition of the p53-p21 signaling increased reprogramming efficiency (26, 28-31, 41). To investigate whether compound OAC1 enhanced reprogramming efficiency by affecting this pathway, MEFs were treated with vehicle control or OAC1 and determined the expression level of p53 and p21 in the treated cells.
(§1) RT-PCR analysis: Total RNA was purified with Trizol reagent (Invitrogen). Reverse transcription was performed with 1 μg of RNA using Omniscript® Reverse Transcription Kit (Qiagen). Quantitative PCR was performed using iTaq SYBR Green Supermix with Rox (Bio-rad) in Applied Biosystem Step one plus real-time PCR system. […]

Sox2 = assay: RT-PCR of Sox2 mRNA in treated MEFs; type: cell-based, mouse; details: versus vehicle
Protocol: (§2) MEFs were treated with vehicle control or OAC 1 to test whether OAC 1 activates endogenous Oct4 and Nanog gene transcription. […] Oct4, Sox2, and Nanog are central to the transcriptional regulatory hierarchy for ESC pluripotency, forming the core transcriptional regulatory circuitry in ESCs (37). […] OAC1 activated Sox2 mRNA expression, along with Oct4 and Nanog (FIG. 61).
as §1

endogenous Oct4 = assay: RT-PCR of endogenous Oct4 mRNA in treated MEFs; type: cell-based, mouse; details: versus vehicle
Protocol: as §2, §1

[1] = test system: β-catenin-responsive reporter gene Topflash; assay: Topflash luciferase reporter assay in CV1 cells (Wnt signaling); type: cell-based; details: 1 μM OAC1 or 2 μM BIO, 48 hr
Protocol: Whether OAC1 regulates major signaling pathways that are critical for embryonic stem cell pluripotency was investigated. […] CV1 cells were transfected with the β-catenin-responsive reporter gene Topflash, and the transfected cells were treated with vehicle control or OAC1 (FIG. 6C). The glycogen synthase kinase 3β (GSK3β) inhibitor BIO was included as a positive control (42).
(§3) AzaC, 25 μg/ml Vc, 10 nM Am580, 5 μM tranylcypromine, and 0.5 mM VPA. Luciferase reporter assays were performed as described (51) 24 hr after compound treatment or at indicated time points. For Topflash reporter assays, 0.2 μg β-catenin-responsive Topflash reporter gene plasmid was introduced into CV1 cells using trasfection (Bio-Rad). Compounds were added 6 hr after transfection. Luciferase activity was measured 48 hr after compound treatment using the Glo Luciferase Assay System (Promega).

human Nanog promoter = assay: Nanog-luc luciferase reporter assay (stably transfected CV1 cells); type: cell-based
Protocol: Oct4, Sox2, and Nanog form a positive regulatory loop to regulate the expression of each other, and Nanog is considered a downstream target gene of Oct4 and Sox2 (37). Therefore, activation of Nanog promoter was used as a validation assay for the identified compounds. Specifically, the Oct4 promoter-activating compounds were tested to ascertain whether they activate a human
Nanog promoter-driven luciferase reporter gene using in triplicate luciferase reporter assays.
Then the promoter sequences were cloned into pGL4.4-luc-Hyg vector (Promega) to get Oct4-luc or Nanog-luc construct and the fidelity of the Oct4 and Nanog promoter DNA sequences was confirmed by bi-directional sequencing. CV 1 cells were transfected with the Oct4-luc or Nanog-luc constructs and the stably-transfected cells were selected by hygromycine resistance.
Luciferase Reporter Assays: The Oct4-luc or Nanog-luc cells were treated with compound OAC 1 or its structural analogs at 1 μM concentration or at indicated concentrations in triplicates. Other compounds used include 2 μM BIO, 2 μM BIX, 2 μM
as §3

luciferase, sequence (P08659 whole entry): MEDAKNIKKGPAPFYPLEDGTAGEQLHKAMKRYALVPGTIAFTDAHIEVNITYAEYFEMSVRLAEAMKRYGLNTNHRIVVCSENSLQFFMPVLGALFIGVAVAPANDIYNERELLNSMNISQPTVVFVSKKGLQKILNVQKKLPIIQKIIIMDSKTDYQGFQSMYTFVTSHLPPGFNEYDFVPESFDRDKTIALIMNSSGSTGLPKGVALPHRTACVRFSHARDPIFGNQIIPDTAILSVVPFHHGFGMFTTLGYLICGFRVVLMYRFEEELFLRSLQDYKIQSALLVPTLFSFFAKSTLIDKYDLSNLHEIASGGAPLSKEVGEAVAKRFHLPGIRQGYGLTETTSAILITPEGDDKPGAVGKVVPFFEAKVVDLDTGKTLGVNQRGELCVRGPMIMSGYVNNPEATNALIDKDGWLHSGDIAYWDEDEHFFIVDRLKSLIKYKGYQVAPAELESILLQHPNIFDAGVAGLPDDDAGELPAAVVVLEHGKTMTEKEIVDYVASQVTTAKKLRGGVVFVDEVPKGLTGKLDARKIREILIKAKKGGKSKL

O=C(Nc1cc2cc[nH]c2cn1)c1ccccc1 [OAC1, N-(1H-6-azaindol-5-yl)benzamide]
inhibition of luciferase activity (luciferase): no inhibition
p21 expression level versus DMSO (p21): no significant difference
Sox2 mRNA expression (Sox2): activated
endogenous Oct4 mRNA expression (endogenous Oct4): activated
effect on Topflash reporter activity [1]: no effect
activation of Nanog-luc at 50 nM (human Nanog promoter; 50 nM): substantial activation
fold induction at 1 µM (human Nanog promoter; Chlorocebus aethiops, CV-1, compound at 1 μM, Nanog-luc cells, triplicates): 4.5
induction of Nanog-luc, comparison with known reprogramming enhancers (in words) (human Nanog promoter; OAC1 1 μM, BIO 2 μM, BIX 2 μM, AzaC 2 μM, Vc 25 μg/ml, Am580 10 nM, tranylcypromine 5 μM, VPA 0.5 mM, two days): potent induction
activation of human Nanog reporter (in words) (human Nanog promoter; triplicate luciferase reporter assays): considerable activation
